Results reported in US20250144067A1, “PERSONALIZED STARVATION THERAPY FOR CANCER” (Faeth Therapeutics, Inc., priority 2021, published 2025).
Counter-ions that a name gives are not always drawn. Like-named read-outs stand apart in the source and are kept apart here.

Key:
[1] = system: NCI-H292 lung cancer cells; assay: FDA drug screening, complete media vs cholesterol-free media with simvastatin (TABLE 2); type: cell-based, human
[2] = system: NCI-H292 lung cancer cells; assay: FDA drug screening, complete media vs cholesterol-free media without statin (TABLE 1); type: cell-based, human
[3] = NCI-H292 cells, cholesterol-free media with simvastatin 0.04 μM, FDA drug library screen (TABLE 2)
[4] = NCI-H292 cells, complete media, FDA drug library screen (TABLE 2)
[5] = complete media minus cholesterol-free media + simvastatin (0.04 μM), >0 enhanced anti-cancer activity, about 0 neutral, <0 antagonist
[6] = NCI-H292 cells, cholesterol-free media without statin
[7] = complete vs cholesterol-free media, greater than 0 enhanced anti-cancer activity, about 0 neutral, below 0 antagonists
[8] = NCI-H292 cells, FDA drug library screen, cholesterol-free media with simvastatin 0.04 μM
[9] = NCI-H292 cells, FDA drug library screen, complete media
[10] = complete media minus cholesterol-free media + simvastatin, >0 enhanced anti-cancer activity, about 0 neutral, <0 antagonist
[11] = NCI-H292 cells, drug in cholesterol-free media with simvastatin 0.04 μM
[12] = NCI-H292 cells, drug in complete media
[13] = complete media vs cholesterol-free media + simvastatin (0.04 μM), >0 enhanced anti-cancer activity, about 0 neutral, <0 antagonist
[14] = Complete minus Cholesterol-free, greater than 0 enhanced anti-cancer activity, about 0 neutral, below 0 antagonists
[15] = NCI-H292 cells in cholesterol-free media without statin
[16] = NCI-H292 cells in complete media
[17] = NCI-H292 cells, FDA library drug in cholesterol-free media with simvastatin 0.04 μM
[18] = NCI-H292 cells, FDA library drug in complete media
[19] = Complete minus Cholesterol-free, >0 enhanced anti-cancer activity, about 0 neutral, <0 antagonist
[20] = NCI-H292 cells, cholesterol-free media without statin, FDA drug library screen
[21] = NCI-H292 cells, complete media, FDA drug library screen

SMILES: CC(=O)O[C@]1(C(C)=O)CC[C@H]2[C@@H]3CCC4=CC(=O)CCC4=C3[C@@H](c3ccc(N(C)C)cc3)C[C@@]21C [Ulipristal acetate]
- Cholesterol-free media + simvastatin (0.04 μM) [1, 3]: 0.6984
- Complete Media [1, 4]: 0.695
- Difference [1, 5]: 0.00
- Cholesterol-free [2, 6]: 1.13
- Complete ([2]; NCI-H292 cells, complete media): 0.8186
- Difference [2, 7]: −0.31

SMILES: OC(c1ccccc1)(c1ccccc1)C12CC[N+](CCOCc3ccccc3)(CC1)CC2.[Br-] [Umeclidinium (bromide)]
- Cholesterol-free media + simvastatin (0.04 μM) [1]: 1.336
- Complete Media [1]: 0.9344
- Difference [1]: −0.40
- Cholesterol-free [2]: 0.5848
- Complete [2]: 0.7554
- Difference [2]: 0.17

SMILES: CCOC(=O)c1c(CSc2ccccc2)n(C)c2cc(Br)c(O)c(CN(C)C)c12 [Umifenovir (hydrochloride)]
- Cholesterol-free media + simvastatin (0.04 μM) [1, 8]: 0.9009
- Complete Media [1, 9]: 1.225
- Difference [1, 10]: 0.32
- Cholesterol-free [2, 6]: 1.088
- Complete ([2]; NCI-H292 cells, complete media): 0.7625
- Difference [2, 7]: −0.33

SMILES: CC[C@@H]1CN(C(=O)NCC(F)(F)F)C[C@@H]1c1cnc2cnc3[nH]ccc3n12 [Upadacitinib]
- Cholesterol-free media + simvastatin (0.04 μM) [1, 11]: 0.7425
- Complete Media [1, 12]: 0.5732
- Difference [1, 13]: −0.17
- Difference [2, 14]: −0.51
- Cholesterol-free [2, 15]: 1.213
- Complete [2, 16]: 0.7003

SMILES: O=c1cc[nH]c(=O)[nH]1 [Uracil]
- Cholesterol-free media + simvastatin (0.04 μM) [1, 17]: 1.203
- Complete Media [1, 18]: 0.8949
- Difference [1, 13]: −0.31
- Difference ([2]; Complete minus Cholesterol-free, greater than 0 enhanced anti-cancer activity, about 0 neutral, below 0 antagonist): −0.17
- Cholesterol-free ([2]; NCI-H292 cells, FDA drug library screen, cholesterol-free media without statin): 1.032
- Complete [2, 9]: 0.8653

SMILES: COc1ccccc1N1CCN(CCCNc2cc(=O)n(C)c(=O)n2C)CC1 [Urapidil (hydrochloride)]
- Cholesterol-free media + simvastatin (0.04 μM) [1, 17]: 1.22
- Complete Media [1, 18]: 0.87
- Difference [1, 13]: −0.35
- Difference [2, 19]: −0.28
- Cholesterol-free [2, 6]: 1.01
- Complete ([2]; NCI-H292 cells, complete media): 0.7335

SMILES: COc1ccccc1N1CCN(CCCNc2cc(=O)n(C)c(=O)n2C)CC1 [Urapidil]
- Cholesterol-free media + simvastatin (0.04 μM) [1, 8]: 1.097
- Complete Media [1, 9]: 1.271
- Difference [1, 10]: 0.17
- Difference [2, 14]: −0.56
- Cholesterol-free [2, 15]: 1.658
- Complete [2, 16]: 1.095

SMILES: NC(N)=O [Urea]
- Cholesterol-free media + simvastatin (0.04 μM) [1, 17]: 1.928
- Complete Media [1, 18]: 1.641
- Difference [1, 13]: −0.29
- Difference [2, 19]: −0.20
- Cholesterol-free [2, 6]: 1.334
- Complete ([2]; NCI-H292 cells, complete media): 1.138

SMILES: CC(=O)OC[C@H]1O[C@@H](n2ccc(=O)[nH]c2=O)[C@H](OC(C)=O)[C@@H]1OC(C)=O [Uridine triacetate]
- Cholesterol-free media + simvastatin (0.04 μM) [1, 11]: 1.076
- Complete Media [1, 12]: 0.8641
- Difference [1, 13]: −0.21
- Cholesterol-free [2, 20]: 1.055
- Complete [2, 21]: 1.37
- Difference ([2]; complete vs cholesterol-free media, >0 enhanced anti-cancer activity, about 0 neutral, <0 antagonist): 0.32

SMILES: O=c1ccn([C@@H]2O[C@H](CO)[C@@H](O)[C@H]2O)c(=O)[nH]1 [Uridine]
- Cholesterol-free media + simvastatin (0.04 μM) [1, 17]: 1.294
- Complete Media [1, 18]: 1.006
- Difference [1, 13]: −0.29
- Difference [2, 19]: −0.19
- Cholesterol-free [2, 6]: 1.404
- Complete ([2]; NCI-H292 cells, complete media): 1.215

SMILES: C[C@H](CCC(=O)O)[C@H]1CC[C@H]2[C@@H]3[C@@H](O)C[C@@H]4C[C@H](O)CC[C@]4(C)[C@H]3CC[C@]12C [Ursodiol]
- Cholesterol-free media + simvastatin (0.04 μM) [1, 8]: 1.413
- Complete Media [1, 9]: 1.314
- Difference [1, 13]: −0.10
- Cholesterol-free [2, 6]: 1.392
- Complete ([2]; NCI-H292 cells, complete media): 0.9832
- Difference [2, 7]: −0.41

SMILES: O[C@H]([C@H](O)[C@@H]1CO1)[C@H]1CO1 [VAL-083]
- Cholesterol-free media + simvastatin (0.04 μM) [1, 11]: 0.879
- Complete Media [1, 12]: 0.7017
- Difference ([1]; complete media vs cholesterol-free media + simvastatin (0.04 μM), […]): −0.18
- Cholesterol-free [2, 6]: 1.036
- Complete ([2]; NCI-H292 cells, complete media): 0.6339
- Difference ([2]; complete vs cholesterol-free media, […]): −0.40

SMILES: O=C(O)C[C@@H]1CC[C@H](NC(=O)Cc2cccs2)B(O)O1 [Vaborbactam]
- Cholesterol-free media + simvastatin (0.04 μM) [1, 3]: 0.8544
- Complete Media [1, 4]: 0.8532
- Difference [1, 5]: 0.00
- Difference [2, 19]: 0.06
- Cholesterol-free [2, 20]: 0.9017
- Complete [2, 21]: 0.9648

SMILES: CC(C)[C@H](N)C(=O)OCCOCn1cnc2c(=O)[nH]c(N)nc21 [Valacyclovir (hydrochloride)]
- Cholesterol-free media + simvastatin (0.04 μM) [1, 8]: 0.9432
- Complete Media [1, 9]: 1.26
- Difference [1, 10]: 0.32
- Cholesterol-free [2, 6]: 1.143
- Complete ([2]; NCI-H292 cells, complete media): 0.7981
- Difference [2, 7]: −0.34
